# Measured values taken from ChEMBL document CHEMBL5032530, “Discovery of Benzocyclic Sulfone Derivatives as Potent CXCR2 Antagonists for Cancer Immunotherapy” (J Med Chem, 2021).
# Activity calls are given as the source filed them. The rule behind the calls is not given here.
# Tests used:
# [1] = target: T1, C-X-C chemokine receptor type 2 (Homo sapiens, UniProt P25025); assay: Displacement of [I-125]-interleukin-8 against human recombinant CXCR2 expressed in CHO-K1 cells incubated for 60 mins by radio ligand binding assay; format: cell-based
# T1 sequence (P25025 whole entry): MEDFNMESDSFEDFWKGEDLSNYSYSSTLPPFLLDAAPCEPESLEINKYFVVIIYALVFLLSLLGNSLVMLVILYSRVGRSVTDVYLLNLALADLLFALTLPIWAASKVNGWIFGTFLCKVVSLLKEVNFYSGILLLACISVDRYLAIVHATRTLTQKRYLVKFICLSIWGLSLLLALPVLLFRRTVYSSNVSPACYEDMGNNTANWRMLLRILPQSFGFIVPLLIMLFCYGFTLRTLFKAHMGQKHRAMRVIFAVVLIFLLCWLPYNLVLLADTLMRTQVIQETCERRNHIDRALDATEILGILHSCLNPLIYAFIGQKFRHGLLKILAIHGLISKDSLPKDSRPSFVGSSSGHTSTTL
# [2] = target: C-C chemokine receptor type 1 (Homo sapiens) (UniProt P32246); assay: Antagonist activity against CCR1 (unknown origin) assessed as inhibition of beta-arrestin 2 recruitment at 10 microM by beta arrestin assay relative to control; format: functional; design: scale not given: the % may be the effect or the level left; conditions: filed as antagonist
# [3] = target: C-C chemokine receptor type 2 (Homo sapiens) (UniProt P41597); assay: Agonist activity against CCR2 (unknown origin) assessed as induction of beta-arrestin 2 recruitment at 10 microM by beta arrestin assay relative to control; format: functional
# [4] = target: C-C chemokine receptor type 2 (Homo sapiens) (UniProt P41597); assay: Antagonist activity against CCR2 (unknown origin) assessed as inhibition of beta-arrestin 2 recruitment at 10 microM by beta arrestin assay relative to control; format: functional; design: scale not given: the % may be the effect or the level left
# [5] = target: C-C chemokine receptor type 4 (Homo sapiens) (UniProt P51679); assay: Agonist activity against CCR4 (unknown origin) assessed as induction of beta-arrestin 2 recruitment at 10 microM by beta arrestin assay relative to control; format: functional
# [6] = target: C-C chemokine receptor type 6 (Homo sapiens) (UniProt P51684); assay: Agonist activity against CCR6 (unknown origin) assessed as induction of beta-arrestin 2 recruitment at 10 microM by beta arrestin assay relative to control; format: functional
# [7] = target: C-C chemokine receptor type 6 (Homo sapiens) (UniProt P51684); assay: Antagonist activity against CCR6 (unknown origin) assessed as inhibition of beta-arrestin 2 recruitment at 10 microM by beta arrestin assay relative to control; format: functional; design: scale not given: the % may be the effect or the level left
# [8] = target: C-C chemokine receptor type 7 (Homo sapiens) (UniProt P32248); assay: Antagonist activity against CCR7 (unknown origin) assessed as inhibition of beta-arrestin 2 recruitment at 10 microM by beta arrestin assay relative to control; format: functional; design: scale not given: the % may be the effect or the level left
# [9] = target: C-C chemokine receptor type 8 (Homo sapiens) (UniProt P51685); assay: Antagonist activity against CCR8 (unknown origin) assessed as inhibition of beta-arrestin 2 recruitment at 10 microM by beta arrestin assay relative to control; format: functional; design: scale not given: the % may be the effect or the level left
# [10] = target: C-C chemokine receptor type 9 (Homo sapiens) (UniProt P51686); assay: Antagonist activity against CCR9 (unknown origin) assessed as inhibition of beta-arrestin 2 recruitment at 10 microM by beta arrestin assay relative to control; format: functional; design: scale not given: the % may be the effect or the level left
# [11] = target: Chemerin-like receptor 1 (Homo sapiens) (UniProt Q99788); assay: Agonist activity against CMKLR1 (unknown origin) assessed as induction of beta-arrestin 2 recruitment at 10 microM by beta arrestin assay relative to control; format: functional
# [12] = target: CX3C chemokine receptor 1 (Homo sapiens) (UniProt P49238); assay: Agonist activity against CX3CR1 (unknown origin) assessed as induction of beta-arrestin 2 recruitment at 10 microM by beta arrestin assay relative to control; format: functional
# [13] = target: CX3C chemokine receptor 1 (Homo sapiens) (UniProt P49238); assay: Antagonist activity against CX3CR1 (unknown origin) assessed as inhibition of beta-arrestin 2 recruitment at 10 microM by beta arrestin assay relative to control; format: functional; design: scale not given: the % may be the effect or the level left
# [14] = target: C-X-C chemokine receptor type 2 (Homo sapiens) (UniProt P25025); assay: Antagonist activity against CXCR2 (unknown origin) assessed as inhibition of beta-arrestin 2 recruitment at 10 microM by beta arrestin assay relative to control; format: functional; design: scale not given: the % may be the effect or the level left; conditions: filed as antagonist
# [15] = target: C-X-C chemokine receptor type 4 (Homo sapiens) (UniProt P61073); assay: Antagonist activity against CXCR4 (unknown origin) assessed as inhibition of beta-arrestin 2 recruitment at 10 microM by beta arrestin assay relative to control; format: functional; design: scale not given: the % may be the effect or the level left
# [16] = target: C-X-C chemokine receptor type 5 (Homo sapiens) (UniProt P32302); assay: Agonist activity against CXCR5 (unknown origin) assessed as induction of beta-arrestin 2 recruitment at 10 microM by beta arrestin assay relative to control; format: functional
# [17] = target: C-X-C chemokine receptor type 6 (Homo sapiens) (UniProt O00574); assay: Agonist activity against CXCR6 (unknown origin) assessed as induction of beta-arrestin 2 recruitment at 10 microM by beta arrestin assay relative to control; format: functional
# [18] = target: Atypical chemokine receptor 3 (Homo sapiens) (UniProt P25106); assay: Agonist activity against CXCR7 (unknown origin) assessed as induction of beta-arrestin 2 recruitment at 10 microM by beta arrestin assay relative to control; format: functional
# [19] = Tmax in ICR mouse at 3 mg/kg, iv measured upto 48 hrs; format: ADME, organism-based; conditions: in vivo
# [20] = AUC (0 to infinity) in ICR mouse at 3 mg/kg, iv measured upto 48 hrs; format: ADME, organism-based; design: route intravenous, dose 3 mg/kg, time <=48; conditions: in vivo
# [21] = AUC (0 to infinity) in ICR mouse at 30 mg/kg, po measured upto 48 hrs; format: ADME, organism-based; design: route oral, dose 30 mg/kg, time <=48; conditions: ICR, in vivo
# [22] = Oral bioavailability in ICR mouse at 30 mg/kg measured upto 48 hrs; format: ADME, organism-based; conditions: in vivo
# Neutrophil = assay: In vivo antagonist activity at CXCR2 in carrageenan-induced C57BL/6 mouse air pouch inflammation model assessed as reduction in neutrophil infiltration into air pouch at 30 mg/kg, po bid administered after 3 days of carrageenan treatment for 3 days; format: functional, organism-based; conditions: time 3.0 day
# MIA PaCa-2 = assay: Cytotoxicity against human MIA PaCa-2 cells assessed as reduction in cell viability measured after 72 hrs by CCK8 assay; format: cell-based; conditions: MIA PaCa-2, 72 h
# Panc02 [23] = assay: Antitumour activity against mouse Panc02 cells xenografted in mouse assessed as change in CD45 expressing immune cells infiltration into tumor tissue at 10 mg/kg, po bid measured after 15 days by flow cytometry analysis (reference value: 2.3%); format: functional; conditions: time 15 day
# Panc02 [24] = assay: Antitumour activity against mouse Panc02 cells xenografted in mouse assessed as change in Gr1 expressing immune cells infiltration into tumor tissue at 10 mg/kg, po bid measured after 15 days by flow cytometry analysis (reference value: 27.4%); format: functional; conditions: time 15 day
# Panc02 [25] = assay: Antitumour activity against mouse Panc02 cells xenografted in mouse assessed as change in CD11b expressing immune cells infiltration into tumor tissue using LY6C antibody at 30 mg/kg, po bid measured after 15 days by flow cytometry analysis (reference value: 20.5%); format: functional; conditions: time 15 day
# Panc02 [26] = assay: Antitumour activity against mouse Panc02 cells xenografted in mouse assessed as reduction in infiltration of neutrophils into tumor tissue at 30 mg/kg, po bid measured after 15 days by immunohistochemical analysis; format: functional, organism-based; conditions: time 15.0 day
# Panc02 [27] = assay: Antitumour activity against mouse Panc02 cells xenografted in mouse assessed as reduction in infiltration of granulocytic MDSCs into tumor tissue at 30 mg/kg, po bid measured after 15 days by immunohistochemical analysis; format: functional, organism-based; conditions: time 15.0 day
# Sequence of CX3C chemokine receptor 1 (Homo sapiens) (P49238 whole entry): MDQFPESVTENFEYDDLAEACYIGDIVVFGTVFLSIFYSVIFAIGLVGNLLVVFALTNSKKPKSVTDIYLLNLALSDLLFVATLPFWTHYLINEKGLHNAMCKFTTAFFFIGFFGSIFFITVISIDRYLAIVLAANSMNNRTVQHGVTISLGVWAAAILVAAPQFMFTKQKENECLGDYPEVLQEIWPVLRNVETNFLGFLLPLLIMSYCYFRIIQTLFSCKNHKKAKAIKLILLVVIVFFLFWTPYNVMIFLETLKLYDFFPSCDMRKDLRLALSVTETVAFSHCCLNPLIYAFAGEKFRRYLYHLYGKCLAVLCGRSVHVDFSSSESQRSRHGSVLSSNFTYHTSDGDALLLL
# Sequence of C-C chemokine receptor type 2 (Homo sapiens) (P41597 whole entry, looked up): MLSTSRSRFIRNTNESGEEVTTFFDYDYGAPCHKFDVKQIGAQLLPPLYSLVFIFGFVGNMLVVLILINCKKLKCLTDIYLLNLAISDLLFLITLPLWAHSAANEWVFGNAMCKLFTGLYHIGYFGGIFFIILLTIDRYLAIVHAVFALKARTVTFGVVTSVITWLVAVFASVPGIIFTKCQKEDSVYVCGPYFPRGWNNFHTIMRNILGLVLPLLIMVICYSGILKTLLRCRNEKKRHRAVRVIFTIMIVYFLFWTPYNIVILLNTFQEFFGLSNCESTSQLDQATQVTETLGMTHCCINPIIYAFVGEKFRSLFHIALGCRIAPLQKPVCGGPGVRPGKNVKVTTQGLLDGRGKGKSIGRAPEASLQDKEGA
# Sequence of C-C chemokine receptor type 6 (Homo sapiens) (P51684 whole entry): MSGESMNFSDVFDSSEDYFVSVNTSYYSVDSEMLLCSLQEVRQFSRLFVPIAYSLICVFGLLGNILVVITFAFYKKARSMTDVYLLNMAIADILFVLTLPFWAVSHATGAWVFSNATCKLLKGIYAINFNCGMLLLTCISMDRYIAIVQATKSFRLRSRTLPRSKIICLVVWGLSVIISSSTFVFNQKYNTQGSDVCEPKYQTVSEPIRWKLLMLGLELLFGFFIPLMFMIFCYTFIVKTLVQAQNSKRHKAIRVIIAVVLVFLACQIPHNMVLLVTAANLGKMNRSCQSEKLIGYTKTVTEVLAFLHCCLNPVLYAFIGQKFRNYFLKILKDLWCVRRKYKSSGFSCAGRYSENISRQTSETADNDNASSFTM
# Sequence of C-X-C chemokine receptor type 6 (Homo sapiens) (O00574 whole entry, looked up): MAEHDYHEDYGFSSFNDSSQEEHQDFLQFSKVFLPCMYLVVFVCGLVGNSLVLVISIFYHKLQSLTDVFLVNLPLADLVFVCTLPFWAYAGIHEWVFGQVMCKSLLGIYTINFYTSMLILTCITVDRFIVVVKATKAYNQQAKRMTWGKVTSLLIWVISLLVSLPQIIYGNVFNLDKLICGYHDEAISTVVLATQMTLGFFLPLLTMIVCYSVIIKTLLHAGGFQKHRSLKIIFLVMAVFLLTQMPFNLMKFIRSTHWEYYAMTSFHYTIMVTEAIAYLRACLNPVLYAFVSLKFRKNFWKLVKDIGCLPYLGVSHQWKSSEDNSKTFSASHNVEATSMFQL
# Sequence of C-C chemokine receptor type 4 (Homo sapiens) (P51679 whole entry): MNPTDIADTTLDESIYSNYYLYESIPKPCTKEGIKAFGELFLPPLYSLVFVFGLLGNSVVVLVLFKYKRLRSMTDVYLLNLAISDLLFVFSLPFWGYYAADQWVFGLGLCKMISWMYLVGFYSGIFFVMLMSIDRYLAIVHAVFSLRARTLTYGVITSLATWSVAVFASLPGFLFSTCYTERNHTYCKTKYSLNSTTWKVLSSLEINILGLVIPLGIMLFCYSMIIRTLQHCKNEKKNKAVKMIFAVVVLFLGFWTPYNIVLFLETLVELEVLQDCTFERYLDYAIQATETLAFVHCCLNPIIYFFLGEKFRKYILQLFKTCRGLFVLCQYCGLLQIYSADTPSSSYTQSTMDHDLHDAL
# Sequence of Atypical chemokine receptor 3 (Homo sapiens) (P25106 whole entry): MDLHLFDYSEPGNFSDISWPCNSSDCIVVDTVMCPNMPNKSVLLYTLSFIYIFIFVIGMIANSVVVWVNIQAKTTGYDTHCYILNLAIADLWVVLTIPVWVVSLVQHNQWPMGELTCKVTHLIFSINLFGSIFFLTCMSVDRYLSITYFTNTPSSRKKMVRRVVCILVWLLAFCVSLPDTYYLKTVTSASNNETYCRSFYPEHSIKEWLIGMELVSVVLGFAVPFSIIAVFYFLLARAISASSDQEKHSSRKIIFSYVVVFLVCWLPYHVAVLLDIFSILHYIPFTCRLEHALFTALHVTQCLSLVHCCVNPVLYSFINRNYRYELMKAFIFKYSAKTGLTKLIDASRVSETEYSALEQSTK
# Sequence of C-C chemokine receptor type 9 (Homo sapiens) (P51686 whole entry): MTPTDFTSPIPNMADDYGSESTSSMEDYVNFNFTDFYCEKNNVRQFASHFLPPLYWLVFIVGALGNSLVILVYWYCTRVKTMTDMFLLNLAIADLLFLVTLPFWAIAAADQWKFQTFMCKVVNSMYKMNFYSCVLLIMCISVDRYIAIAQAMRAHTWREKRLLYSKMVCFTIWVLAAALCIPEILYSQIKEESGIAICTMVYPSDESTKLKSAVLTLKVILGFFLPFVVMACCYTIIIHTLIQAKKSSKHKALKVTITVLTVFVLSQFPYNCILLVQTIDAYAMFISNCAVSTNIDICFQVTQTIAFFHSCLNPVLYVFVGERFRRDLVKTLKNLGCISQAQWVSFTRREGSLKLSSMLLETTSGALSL
# Sequence of C-X-C chemokine receptor type 5 (Homo sapiens) (P32302 whole entry): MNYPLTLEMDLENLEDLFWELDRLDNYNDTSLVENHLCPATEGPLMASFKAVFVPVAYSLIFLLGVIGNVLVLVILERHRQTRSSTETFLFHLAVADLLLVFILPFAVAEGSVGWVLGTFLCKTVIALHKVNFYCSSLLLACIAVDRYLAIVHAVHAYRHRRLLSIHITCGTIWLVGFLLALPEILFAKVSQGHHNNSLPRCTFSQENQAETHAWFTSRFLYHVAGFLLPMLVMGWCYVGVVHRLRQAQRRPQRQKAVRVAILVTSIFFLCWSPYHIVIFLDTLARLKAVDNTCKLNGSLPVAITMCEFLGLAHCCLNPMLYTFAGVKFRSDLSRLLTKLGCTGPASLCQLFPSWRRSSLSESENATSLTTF
# Sequence of C-C chemokine receptor type 7 (Homo sapiens) (P32248 whole entry): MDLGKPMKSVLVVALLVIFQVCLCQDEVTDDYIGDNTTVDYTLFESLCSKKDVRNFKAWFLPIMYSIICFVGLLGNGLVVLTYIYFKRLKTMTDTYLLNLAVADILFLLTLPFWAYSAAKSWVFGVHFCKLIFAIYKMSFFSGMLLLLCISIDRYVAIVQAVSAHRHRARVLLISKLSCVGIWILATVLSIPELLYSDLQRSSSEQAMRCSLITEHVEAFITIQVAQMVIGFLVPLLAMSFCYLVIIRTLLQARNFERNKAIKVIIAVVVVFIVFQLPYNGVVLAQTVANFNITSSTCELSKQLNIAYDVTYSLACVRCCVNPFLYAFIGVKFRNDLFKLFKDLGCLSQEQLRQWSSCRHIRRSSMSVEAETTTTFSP
# Sequence of C-C chemokine receptor type 1 (Homo sapiens) (P32246 whole entry): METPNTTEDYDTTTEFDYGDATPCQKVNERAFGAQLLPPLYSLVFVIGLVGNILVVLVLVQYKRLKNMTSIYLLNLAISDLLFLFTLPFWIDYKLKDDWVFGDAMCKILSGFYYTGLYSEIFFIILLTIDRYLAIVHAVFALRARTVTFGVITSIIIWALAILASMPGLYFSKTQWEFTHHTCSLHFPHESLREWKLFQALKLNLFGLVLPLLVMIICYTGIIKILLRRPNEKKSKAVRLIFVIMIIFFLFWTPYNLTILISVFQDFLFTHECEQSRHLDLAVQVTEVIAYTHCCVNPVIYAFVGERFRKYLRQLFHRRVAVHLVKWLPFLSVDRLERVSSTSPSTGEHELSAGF
# Sequence of C-C chemokine receptor type 8 (Homo sapiens) (P51685 whole entry): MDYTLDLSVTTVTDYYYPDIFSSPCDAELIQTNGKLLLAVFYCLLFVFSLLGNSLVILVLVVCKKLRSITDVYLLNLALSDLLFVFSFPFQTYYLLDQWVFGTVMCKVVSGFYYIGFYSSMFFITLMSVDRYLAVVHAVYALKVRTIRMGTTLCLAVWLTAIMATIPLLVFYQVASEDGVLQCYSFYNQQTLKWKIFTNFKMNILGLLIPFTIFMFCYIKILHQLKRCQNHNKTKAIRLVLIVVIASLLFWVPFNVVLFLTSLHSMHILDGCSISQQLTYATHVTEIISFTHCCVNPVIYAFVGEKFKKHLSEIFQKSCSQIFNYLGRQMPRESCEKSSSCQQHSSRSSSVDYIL
# Sequence of Chemerin-like receptor 1 (Homo sapiens) (Q99788 whole entry): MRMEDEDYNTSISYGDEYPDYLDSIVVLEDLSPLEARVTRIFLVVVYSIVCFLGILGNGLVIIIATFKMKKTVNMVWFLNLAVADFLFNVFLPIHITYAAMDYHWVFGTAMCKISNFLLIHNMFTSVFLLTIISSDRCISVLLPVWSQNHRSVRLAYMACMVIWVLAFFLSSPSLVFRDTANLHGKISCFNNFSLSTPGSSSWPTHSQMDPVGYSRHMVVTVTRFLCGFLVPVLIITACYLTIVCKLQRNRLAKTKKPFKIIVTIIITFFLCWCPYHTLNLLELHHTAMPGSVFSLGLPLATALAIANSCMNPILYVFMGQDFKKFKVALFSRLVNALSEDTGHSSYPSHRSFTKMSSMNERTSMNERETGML
# Sequence of C-X-C chemokine receptor type 4 (Homo sapiens) (P61073 whole entry): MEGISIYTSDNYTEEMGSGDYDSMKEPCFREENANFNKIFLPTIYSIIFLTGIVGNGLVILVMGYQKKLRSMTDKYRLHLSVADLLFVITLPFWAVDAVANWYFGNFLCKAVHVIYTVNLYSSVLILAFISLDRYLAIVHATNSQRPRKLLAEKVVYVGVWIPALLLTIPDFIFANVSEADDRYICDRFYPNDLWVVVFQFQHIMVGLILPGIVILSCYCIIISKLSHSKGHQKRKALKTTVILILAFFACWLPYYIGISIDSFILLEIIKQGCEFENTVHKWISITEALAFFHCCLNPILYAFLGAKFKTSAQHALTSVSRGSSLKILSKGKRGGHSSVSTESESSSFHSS
structure (smiles),measurement,setting,value
Cc1c(F)cccc1NC(=O)Nc1ccc2c(c1O)S(=O)(=O)CCC2,Ki,[1],1.24 µM
same,Activity,[2],49%
same,Activity,[3],< 10%
same,Activity,[4],17%
same,Activity,[5],< 10%
same,Activity,[6],< 10%
same,Activity,[7],< 10%
same,Activity,[8],20%
same,Activity,[9],< 10%
same,Activity,[10],14%
same,Activity,[11],< 10%
same,Activity,[12],< 10%
same,Activity,[13],< 10%
same,Activity,[14],109%
same,Activity,[15],12%
same,Activity,[16],< 10%
same,Activity,[17],< 10%
same,Activity,[18],< 10%
same,Tmax,[19],1.8 min
same,AUC(0-inf),[20],365 ng·h/mL
same,AUC(0-inf),[21],229 ng·h/mL
same,bioavailability,[22],6.1%
same,Activity,Neutrophil,Active
same,IC50,MIA PaCa-2,> 10 µM
same,Activity,Panc02 [23],30.3%
same,Activity,Panc02 [24],11.2%
same,Activity,Panc02 [25],15.3%
same,Activity,Panc02 [26],Active
same,Activity,Panc02 [27],Active
